Assay results as given in patent US10940139B2, “Compounds that interact with the Ras superfamily for the treatment of cancers, inflammatory diseases, rasopathies, and fibrotic disease” (Shy Therapeutics LLC, priority 2017, dated 2021).

System: MAPK phosphorylation in PANC-1 pancreatic cancer cell line
Assay: MAPK cell-based phosphorylation assay (cell-direct ELISA, EGF stimulation)
Conditions: Homo sapiens
Description: Cell lines: Tumor-derived pancreatic cancer cell lines PANC-1 were purchased from ATCC and were maintained according to ATCC recommendation.
Method: Cells were plated at 7500 cells/well density in 96-wells plate, starved over night, and the small molecules to be tested were added to the cells in the final concentration of 30 μM with 0.3% DMSO for 6 hours incubation at 37° C. For IC50 value determination, serial dilutions of compounds were added to cells under the same conditions. Next, cells were stimulated with 1.5 ng/ml EGF for 15 min. followed by cell fixation with 4% Formaldehyde in PBS at RT for 20 min. Phosphorylation level of MAPK was determined by Cell-direct ELISA.
Cell-direct ELISA: For each well, cells were permeabilized with PBS-Triton 0.1%, quenched with H2O2 0.6% in PBS-Triton 0.1%, and probed with anti-phospho-MAPK antibodies (R&D Systems) followed by HRP-conjugated secondary antibody (Jackson Immunoresearch, West Grove, Pa.). Next, a solution 50 μM of the fluorescent substrate AmpliFlu Red (Sigma) was added and incubated at RT for 20 min. At the end of the incubation time, fluorescence was measured at 595 nm on a microplate reader (AF2200; Eppendorf, Inc., Hamburg, Germany).

Row | SMILES | IC50 [µM]
1 | Oc1nc(-c2ccccn2)nc2sccc12 [drawing 1081] | 11 to 30
2 | O=C(c1csc2c(O)nc(-c3ccccn3)nc12)N1CCOC(c2nccs2)C1 (centres unmarked) [drawing 1129] | > 30
3 | N#Cc1ncn(-c2nc(-c3ccccn3)nc3sc(-c4ccccc4)cc23)n1 [drawing 1083] | 2 to 10
4 | O=C(c1csc2c(O)nc(-c3ccccn3)nc12)N1CCN(c2ccccc2)CC1 [drawing 1068] | 2 to 10
5 | CC1CN(c2ccccc2)CCN1C(=O)c1csc2c(O)nc(-c3ccccn3)nc12 (centres unmarked) [drawing 1143] | > 30

Same assay, conditions: Homo sapiens, * = tested at 10 μM

Row | SMILES | inhibition at 10 µM [%]
6 | COc1c(O)nc(-c2ccccn2)nc1Oc1cccc(C(F)(F)F)c1 [drawing 1317] | 1 to 25
7 | OCC1(c2ccc(-c3csc4c(O)nc(-c5ccccn5)nc34)cc2)CC1 [drawing 1223] | 51 to 75
8 | Oc1cccc(-c2csc3c(O)nc(-c4ccccn4)nc23)n1 [drawing 1259] | 51 to 75
9 | O=C(NCCc1ccnc(O)n1)c1csc2nc(-c3ccccn3)nc(N3CCOCC3)c12 [drawing 1235] | 1 to 25
10 | CN1CCN(c2nc(-c3ccccn3)nc3scc(C(=O)NCCc4cnc(O)nc4)c23)CC1 [drawing 1236] | 25 to 50
11 | COc1ccc(-c2cc3nc(-c4ccccn4)nc(O)c3s2)cc1 [drawing 1323] | 1 to 25
12 | Nc1cccc(-c2csc3c(O)nc(-c4ccccn4)nc23)n1 [drawing 1274] | 51 to 75
13 | OCC1(c2ccc(-c3nc(-c4ccccn4)nc(O)c3Oc3ccccc3)cc2)CC1 [drawing 1294] | 1 to 25
14 | Cn1cnc(-c2nc(O)c3c(-c4ccccc4)c(-c4ccc(CNC(=O)OC(C)(C)C)cc4)sc3n2)c1 [drawing 1297] | 0
15 | Cn1ccnc1-c1nc(O)c2scc(-c3ccc(F)cc3F)c2n1 [drawing 1376] | 0
16 | CCn1nc(C)cc1-c1csc2c(O)nc(-c3ccccn3)nc12 [drawing 1239] | 1 to 25
17 | COCCNc1nc(-c2cccc(N)n2)nc2sc(-c3ccccc3)c(-c3ccccc3)c12 [drawing 1351] | 51 to 75
18 | Cc1sc2c(O)nc(-c3ccccn3)nc2c1C(=O)N1CCN(Cc2cccc(O)c2)CC1 [drawing 1271] | 25 to 50
19 | O=C(COCc1ccncc1)Nc1nc(-c2ccccn2)nc2sccc12 [drawing 1185] | 1 to 25
20 | Cc1sc2c(O)nc(-c3nccn3C)nc2c1-c1cccc(C(F)(F)F)c1 [drawing 1359] | 1 to 25
21 | Oc1nc(-c2ccccn2)nc2cc(-c3ccccc3Cl)sc12 [drawing 1316] | 1 to 25
22 | Oc1nc(-c2ccccn2)nc2cc(-c3ccc(-c4ccccc4)cc3)sc12 [drawing 1319] | 25 to 50

Row | SMILES | inhibition at 10 µM [%]
23 | Cc1ccc(-c2cc3nc(-c4ccccn4)nc(O)c3s2)cc1 [drawing 1315] | 76 to 100
24 | COCCNc1nc(-c2ccccn2)nc2c1c(-c1ccccc1)nn2-c1ccccn1 [drawing 1298] | 1 to 25
25 | COCCNc1nc(-c2nccn2C)nc2sc(-c3ccccc3Cl)c(-c3ccccc3)c12 [drawing 1341] | 76 to 100
26 | O=C(CCc1cncnc1)Nc1nc(-c2ccccn2)nc2sccc12 [drawing 1228] | 1 to 25
27 | COCCNc1nc(-c2ccncn2)nc2sc(-c3ccccc3)c(-c3ccccc3)c12 [drawing 1334] | 1 to 25
28 | COc1cnc(CNC(=O)c2sc3c(O)nc(-c4ccccn4)nc3c2C)[nH]c1=O [drawing 1284] | 0
29 | COc1nccc(CCNC(=O)c2csc3nc(-c4ccccn4)nc(N4CCOCC4)c23)n1 [drawing 1234] | 25 to 50
30 | COCCNc1nc(-c2nccn2C)nc2sc(-c3ccccc3)c(-c3ccncc3)c12 [drawing 1356] | 25 to 50
31 | Oc1nc(-c2ccccn2)nc2c(-c3ccc4c(c3)OCO4)csc12 [drawing 1218] | 76 to 100
32 | Cc1sc2c(O)nc(-c3nccn3C)nc2c1-c1ccc(OC(C)C)c(F)c1 [drawing 1370] | 25 to 50
33 | Cc1c(Br)sc2c(O)nc(-c3ccccn3)nc12 [drawing 1248] | 1 to 25
34 | N#Cc1ccc2c(c1)CCCC2C(=O)Nc1ccnc(-c2ccccn2)n1 (centres unmarked) [drawing 1197] | 1 to 25
35 | Cc1sc2c(O)nc(-c3nccn3C)nc2c1-c1ccccc1 [drawing 1354] | 0
36 | Oc1nc(-c2ccccn2)nc2c(-c3cncnc3)csc12 [drawing 1265] | 0
37 | Oc1nc(-c2ccccn2)nc2c(CC3CCNC3)csc12 (centres unmarked) [drawing 1286] | 1 to 25
38 | Cn1ccnc1-c1nc(O)c2scc(-c3cccc(C(F)(F)F)c3)c2n1 [drawing 1358] | 25 to 50
39 | Oc1nc(-c2ccccn2)nc2c(-c3cc(F)cc(F)c3)csc12 [drawing 1237] | 76 to 100

Same assay, conditions: Homo sapiens, at 30 μM

Row | SMILES | inhibition at 30 µM [%]
40 | CC(C)(C)c1nc(C(=O)Nc2nnc(-c3ccccn3)[nH]2)cs1 [drawing 1023] | 1 to 25
41 | O=C(c1ccccn1)N1CCCc2c(O)nc(-c3ccccn3)nc21 [drawing 1062] | 1 to 25
42 | N#Cc1csc2nc(-c3ccccn3)nc(N3CCOCC3)c12 [drawing 1178] | 1 to 25
43 | CSc1nc(C2CC2)cc(C(=O)NCCc2ccc(S(=O)(=O)NC(=O)c3cc(C4CC4)nc(SC)c3C#N)cc2)c1C#N [drawing 1055] | 76 to 100
44 | COCCNc1nc(-c2ccccn2)nc2scc(-c3ccccc3)c12 [drawing 1108] | 76 to 100
45 | Oc1nc(-c2ccccn2)nc2sccc12 [drawing 1081] | 1 to 25
46 | COc1ccc(C2CN(C(=O)c3csc4c(O)nc(-c5ccccn5)nc34)CCN2)cc1 (centres unmarked) [drawing 1151] | 25 to 50
47 | O=C(c1csc2c(O)nc(-c3ccccn3)nc12)N1CCNC(Cc2ccccc2)C1 (centres unmarked) [drawing 1154] | 1 to 25
48 | O=C(Nc1nnc(-c2ccccn2)[nH]1)c1ccc2ccccc2n1 [drawing 1002] | 1 to 25
49 | COc1cc(COCC(=O)Nc2ccnc(-c3ccccn3)n2)ccn1 [drawing 1172] | 25 to 50
50 | Cc1cnc(-c2ccccn2)nc1NC(=O)COCc1ccc(C#N)cc1 [drawing 1174] | 1 to 25
51 | O=C(Cc1cccs1)Nc1nnc(-c2ccccn2)[nH]1 [drawing 1007] | 25 to 50
52 | Cc1sc2nc(-c3ccccn3)nc(NCCc3nccn3C)c2c1-c1ccccc1 [drawing 1085] | 1 to 25
53 | COCCCCNC(=O)c1csc2nc(-c3ccccn3)nc(N3CCOCC3)c12 [drawing 1156] | 1 to 25
54 | CC1CCN(C(=O)c2csc3c(O)nc(-c4ccccn4)nc23)CC1 [drawing 1065] | 1 to 25
55 | CS(=O)(=O)Cc1ccc(C(=O)Nc2nc(-c3ccccn3)cs2)cc1 [drawing 1029] | 1 to 25
56 | O=C(c1csc2c(O)nc(-c3ccccn3)nc12)N1CCOC(c2nccs2)C1 (centres unmarked) [drawing 1129] | 25 to 50
57 | COc1cc(N2CCN(C(=O)c3csc4c(O)nc(-c5ccccn5)nc34)CC2)ccc1O [drawing 1179] | 25 to 50
58 | OC1CCCN(c2nc(-c3ccccn3)nc3scc(-c4ccccc4)c23)C1 (centres unmarked) [drawing 1102] | 51 to 75
59 | COC(=O)C(C)CN(Cc1cc(Br)ccc1[N+](=O)[O-])C1CC1 (centres unmarked) [drawing 1054] | 1 to 25
60 | O=C(c1csc2c(O)nc(-c3ccccn3)nc12)N1CCN(c2cccc(Cl)c2)CC1 [drawing 1120] | 25 to 50

Row | SMILES | inhibition at 30 µM [%]
61 | N#Cc1ncn(-c2nc(-c3ccccn3)nc3sc(-c4ccccc4)cc23)n1 [drawing 1083] | 76 to 100
62 | O=C1CCN(c2nc(-c3ccccn3)nc3scc(-c4ccccc4)c23)CC1 [drawing 1110] | 25 to 50
63 | O=C(Nc1nc(-c2ccccn2)cs1)c1ccc(F)cc1 [drawing 1035] | 1 to 25
64 | O=C(Nc1nnc(-c2ccccn2)[nH]1)c1cccc(N2CCCS2(=O)=O)c1 [drawing 1021] | 1 to 25
65 | O=C(c1csc2c(O)nc(-c3ccccn3)nc12)N1CCN(c2ccc(F)cc2)CC1 [drawing 1138] | 1 to 25
66 | O=C(CN1CCN(c2nc(-c3ccccn3)nc3scc(-c4ccccc4)c23)CC1)N1CCCCC1 [drawing 1096] | 25 to 50
67 | CN(Cc1cnn(C)c1)c1nc(-c2ccccn2)nc2scc(-c3ccccc3)c12 [drawing 1089] | 25 to 50
68 | c1ccc(-c2csc3nc(-c4ccccn4)nc(NN4CCOCC4)c23)cc1 [drawing 1106] | 1 to 25
69 | O=C(c1csc2c(O)nc(-c3ccccn3)nc12)N1CCOC(c2ccccc2Cl)C1 (centres unmarked) [drawing 1149] | 1 to 25
70 | O=C(c1csc2c(O)nc(-c3ccccn3)nc12)N1CCOC(c2ccc(Cl)cc2)C1 (centres unmarked) [drawing 1127] | 1 to 25
71 | O=C(Nc1nnc(-c2ccccn2)[nH]1)c1ccn(-c2cccc(Cl)c2)n1 [drawing 1028] | 25 to 50
72 | O=C1CN(c2nc(-c3ccccn3)nc3scc(-c4ccccc4)c23)CCN1 [drawing 1082] | 1 to 25
73 | COCCN(CCOC)c1nc(-c2ccccn2)nc2scc(C(=O)NCCc3ccc(OC)nc3)c12 [drawing 1157] | 1 to 25
74 | O=C(CC1C=CCC1)Nc1nnc(-c2ccccn2)[nH]1 (centres unmarked) [drawing 1005] | 1 to 25
75 | O=C(c1csc2c(O)nc(-c3ccccn3)nc12)N1CCN(c2ccccc2)CC1 [drawing 1068] | 76 to 100
76 | O=C(NCCc1cnc(O)nc1)c1csc2nc(-c3ccccn3)nc(N3CCOCC3)c12 [drawing 1169] | 25 to 50
77 | O=C(c1csc2c(O)nc(-c3ccccn3)nc12)N1CCC(c2cccnc2)CC1 [drawing 1070] | 1 to 25
78 | Cc1cnc(-c2ccccn2)nc1NC(=O)COCc1ccnc(O)c1 [drawing 1175] | 25 to 50
79 | CC1CN(c2ccccc2)CCN1C(=O)c1csc2c(O)nc(-c3ccccn3)nc12 (centres unmarked) [drawing 1143] | 51 to 75
80 | COc1cnc(CNC(=O)Cn2cnc3nc(-c4ccccn4)nc(N4CCOCC4)c32)[nH]c1=O [drawing 1183] | 1 to 25
